Assay results as given in ChEMBL document CHEMBL6087474, “Discovery of an Efficacious RET PROTAC Degrader with Enhanced Antiproliferative Activity against Resistant Cancer Cells Harboring RET Solvent-Front Mutations” (J Med Chem, 2025).
Calls of active or inactive are those of the source. The calls are words filed in the database; no cut-off is given here.

Columns and labels:
[1] = tested on: BaF3; assay: PROTAC activity at CRBN/KIF5B-RET (unknown origin) expressed in mouse BaF3 cells assessed as induction of RET degradation at 10 nM measured after 6 hrs by Western blot analysis relative to control; assay type: cell-based
[2] = tested on: BaF3; assay: Antiproliferative activity against mouse BaF3 cells stably expressing KIF5B-RET-G810R mutant incubated for 72 hrs by CCK-8 assay; assay type: functional, cell-based; settings: BaF3, 72 h
[3] = PROTAC activity at CRBN/KIF5B-RET (unknown origin) expressed in mouse BaF3 cells assessed as induction of RET degradation measured after 6 hrs by Western blot analysis; settings: Homo sapiens, BaF3, 6 h
[4] = PROTAC activity at CRBN/KIF5B-RET-V804M mutant (unknown origin) expressed in mouse BaF3 cells assessed as induction of RET degradation measured after 6 hrs by Western blot analysis; assay type: cell-based; settings: BaF3, 6 h
[5] = tested on: BaF3; assay: Antiproliferative activity against mouse BaF3 cells stably expressing KIF5B-RET-V804L mutant incubated for 72 hrs by CCK-8 assay; assay type: functional, cell-based; settings: BaF3, 72 h
[6] = Potency index, ratio of selpercatinib IC50 to test compound IC50 for antiproliferative activity against mouse BaF3 cells stably expressing KIF5B-RET-G810S mutant incubated for 72 hrs by CCK-8 assay; assay type: functional
[7] = Potency index, ratio of selpercatinib IC50 to test compound IC50 for antiproliferative activity against mouse BaF3 cells stably expressing CCDC6-RET-G810C mutant incubated for 72 hrs by CCK-8 assay; assay type: functional
[8] = Effect on RET protein level in mouse BaF3 cells stably expressing wildtype KIF5B-RET assessed as fold change at 300 nM measured after 6 hrs by Western blot analysis (reference value: 1); assay type: functional
[9] = Effect on Shc protein level in mouse BaF3 cells stably expressing wildtype KIF5B-RET assessed as fold change at 11.1 nM measured after 6 hrs by Western blot analysis; assay type: functional
[10] = Effect on Shc protein level in mouse BaF3 cells stably expressing wildtype KIF5B-RET assessed as fold change at 100 nM measured after 6 hrs by Western blot analysis; assay type: functional
[11] = Effect on Shc protein level in mouse BaF3 cells stably expressing wildtype KIF5B-RET assessed as fold change at 300 nM measured after 6 hrs by Western blot analysis; assay type: functional
[12] = Effect on Shc protein level in mouse BaF3 cells stably expressing KIF5B-RET-V804M mutant assessed as fold change at 300 nM measured after 6 hrs by Western blot analysis (reference value: 1); assay type: functional
[13] = Effect on RET protein level in mouse BaF3 cells stably expressing KIF5B-RET-G810C mutant assessed as fold change at 100 nM measured after 6 hrs by Western blot analysis (reference value: 1); assay type: functional
[14] = Effect on RET protein level in mouse BaF3 cells stably expressing KIF5B-RET-G810R mutant assessed as fold change at 11.1 nM measured after 6 hrs by Western blot analysis (reference value: 1); assay type: functional
[15] = Effect on Shc protein level in mouse BaF3 cells stably expressing KIF5B-RET-G810R mutant assessed as fold change at 100 nM measured after 6 hrs by Western blot analysis (reference value: 1); assay type: functional
[16] = tested on: BaF3; assay: Inhibition of Shc (unknown origin) phosphorylation in mouse BaF3 cells stably expression KIF5B-RET G810R mutant at 333.3 to 3000 nM measured after 6 hrs by Western blot analysis; assay type: cell-based; settings: Homo sapiens, dose 333.3-3000 nM
[17] = Induction of apoptosis in mouse BaF3 cells stably expressing wildtype KIF5B-RET fusion protein assessed as viable cells at 33.3 nM measured after 48 hrs by Annexin V-FITC/7-AAD staining based flow cytometric analysis (reference value: 86.65 %); assay type: functional; settings: read-out: Activity
[18] = Induction of apoptosis in mouse BaF3 cells stably expressing wildtype KIF5B-RET fusion protein assessed as viable cells at 100 nM measured after 48 hrs by Annexin V-FITC/7-AAD staining based flow cytometric analysis (reference value: 86.65 %); assay type: functional; settings: read-out: Activity
[19] = Induction of apoptosis in mouse BaF3 cells stably expressing wildtype KIF5B-RET fusion protein assessed as early apoptotic cells at 100 nM measured after 48 hrs by Annexin V-FITC/7-AAD staining based flow cytometric analysis (reference value: 9.92 %); assay type: functional
[20] = Induction of apoptosis in mouse BaF3 cells stably expressing wildtype KIF5B-RET fusion protein assessed as necrotic cells at 100 nM measured after 48 hrs by Annexin V-FITC/7-AAD staining based flow cytometric analysis (reference value: 2.40 %); assay type: functional
[21] = Induction of apoptosis in mouse BaF3 cells stably expressing wildtype KIF5B-RET fusion protein assessed as viable cells at 300 nM measured after 48 hrs by Annexin V-FITC/7-AAD staining based flow cytometric analysis (reference value: 86.65 %); assay type: functional; settings: read-out: Activity
[22] = Induction of apoptosis in mouse BaF3 cells stably expressing wildtype KIF5B-RET fusion protein assessed as necrotic cells at 300 nM measured after 48 hrs by Annexin V-FITC/7-AAD staining based flow cytometric analysis (reference value: 2.40 %); assay type: functional
[23] = Induction of apoptosis in mouse BaF3 cells stably expressing KIF5B-RET-G810C mutant assessed as early apoptotic cells at 33.3 nM measured after 48 hrs by Annexin V-FITC/7-AAD staining based flow cytometric analysis (reference value: 8.57 %); assay type: functional
[24] = Induction of apoptosis in mouse BaF3 cells stably expressing KIF5B-RET-G810C mutant assessed as early apoptotic cells at 300 nM measured after 48 hrs by Annexin V-FITC/7-AAD staining based flow cytometric analysis (reference value: 8.57 %); assay type: functional
[25] = Induction of apoptosis in mouse BaF3 cells stably expressing KIF5B-RET-G810C mutant assessed as late apoptotic cells at 300 nM measured after 48 hrs by Annexin V-FITC/7-AAD staining based flow cytometric analysis (reference value: 1.96 %); assay type: functional
[26] = Induction of apoptosis in mouse BaF3 cells stably expressing KIF5B-RET-G810C mutant assessed as viable cells at 900 nM measured after 48 hrs by Annexin V-FITC/7-AAD staining based flow cytometric analysis (reference value: 86.58 %); assay type: functional; settings: read-out: Activity
[27] = Induction of apoptosis in mouse BaF3 cells stably expressing KIF5B-RET-G810C mutant assessed as late apoptotic cells at 900 nM measured after 48 hrs by Annexin V-FITC/7-AAD staining based flow cytometric analysis (reference value: 1.96 %); assay type: functional
[28] = Induction of apoptosis in mouse BaF3 cells stably expressing KIF5B-RET-G810C mutant assessed as necrotic cells at 900 nM measured after 48 hrs by Annexin V-FITC/7-AAD staining based flow cytometric analysis (reference value: 2.89 %); assay type: functional
[29] = AUC in male ICR mouse at 10 mg/kg, ip measured after 24 hrs by LC-MS/MS analysis; assay type: ADME, organism-based; settings: in vivo
[30] = tested on: BaF3; assay: Antitumor activity against mouse BaF3 cells stably expressing KIF5B-RET-G810C mutant implanted in male BALB/c mouse model assessed as tumor growth inhibition at 30 mg/kg, ip administered daily for 14 days relative to control; assay type: functional; settings: BaF3, 336 h, time 14 day, read-out: TGI

COc1ccc(CN2C3CC2CN(c2ccc(-c4cc(-c5cnn(C6CCN(CCCCCC#Cc7cccc8c7CN(C7CCC(=O)NC7=O)C8=O)CC6)c5)cn5ncc(C#N)c45)cn2)C3)cn1 (stereo not given)
Activity [1]: 60%
IC50 [2]: 150 nM
DC50 [3]: 4.7 nM
DC50 [4]: 17.2 nM
IC50 [5]: 50 nM
Ratio IC50 [6]: 6.3
Ratio IC50 [7]: ~8.8
fold change (FC) [8]: 0.2
fold change (FC) [9]: 1
fold change (FC) [10]: 1
fold change (FC) [11]: 1
fold change (FC) [12]: 1
fold change (FC) [13]: 0.4
fold change (FC) [14]: 1
fold change (FC) [15]: 0.9
inhibition [16]: Active
viability at 0.0333 µM [17]: 74.2%
viability at 0.1 µM [18]: 64.9%
Activity [19]: 33.58%
Activity [20]: 0.52%
viability at 0.3 µM [21]: 50.2%
Activity [22]: 0.42%
Activity [23]: 10.15%
Activity [24]: 31.81%
Activity [25]: 2.91%
viability at 0.9 µM [26]: 41%
Activity [27]: 3.71%
Activity [28]: 1.26%
AUC at 24 h [29]: 680 ng·h/mL
inhibition in vivo at 30 mg/kg [30]: 49.2%
